{"source": "patent US11357778B2", "about": "“Antagonist of the fibroblast growth factor receptor 3 (FGFR3) for use in the treatment or the prevention of skeletal disorders linked with abnormal activation of FGFR3” (INSTITUT NATIONAL DE LA SANTE ET DE LE RECHERCHE MEDICALE …, priority 2011, dated 2022)", "key": {"[1]": {"test_system": "FGFR3Y373C, FGFR3K650E, FGFR3K650M, FGFR3G380R", "test": "Constitutive FGFR3 phosphorylation in HEK-293 cells transiently expressing activated FGFR3", "format": "cell-based, human", "details": "10 μM, data not shown"}, "Fgfr3^Y367C/+ femurs": {"test_system": "Fgfr3^Y367C/+ femurs", "test": "Ex vivo culture of E16.5 embryonic femur explants, bone length", "format": "cell-based, mouse", "details": "for gain in femur length: Fgfr3^Y367C/+ femurs", "experimental": "Six sets of ex vivo experiments were performed. Femur embryos at day E16.5 from WT (n=6) and Fgfr3^Y367C/+ (n=6) mice were used and incubated for 5 days in DMEM medium with antibiotics and 0.2% BSA (Sigma) supplemented with A31 or PD173074 (as control) at a concentration of 2 mM. Right femur was cultured in supplemented medium and compared with the left one cultured in control medium. Rib cage from E16.5 WT and Fgfr3^Y367C/+ mice embryos were isolated and stripped of all soft tissues. Primary chondrocytes were obtained from rib cages. The ribs were incubated in a pronase solution (Roche; 2 mg/ml) followed by a digestion in Collagenase A (Roche; 3 mg/ml) at 37° C. Isolated chondrocytes were plated out at a density of 2.105 cells in 6-well plates containing DMEM supplemented with 10% FCS and antibiotics, and were allowed to reach subconfluency. Cultures were supplemented with A31 or PD173074 (as control) at a concentration of 2 mM. Cells were treated with A31 (2 mM) PD173074 (as control) in serum-free DMEM supplemented with 0.2% BSA and harvested after 24 h. To establish the effect of the inhibitors, the right femur was cultured in supplemented medium and compared with the left one cultured in control medium The bone length was measured at the beginning (before treatment) and at the end of time course. Each experiment was repeated at least three times. The genotype of WT, Fgfr3^Y367C/+ and Fgfr3^−/− mice were determined by PCR of tail DNA as previously described (Pannier et al., Biochim Biophys Acta, 1792: 140-147, 2009). All experimental procedures and protocols were approved by the Animal Care and Use Committee.\nFgfr3^Y367C/+ mice display reduced length of long bones, broad femurs, a narrow trunk, short ribs and a slightly dome-shaped skull, closely resembling achondroplasia (FIGS. 3A and B). The inventors analyzed the effects of A31 on endochondral ossification in Fgfr3^Y367C/+ mice by using an ex vivo culture system for embryonic day 16.5 (E16.5) limb explants. […] After 5 days of culture, the increase in length of the treated mutant femurs was 2.6 times more than for that of WT.\nThus, embryonic femur explants were co-incubated with 150 nM of PD173074 for 5 days.\nEmbryonic femur explants were co-incubated 100 nM (10^−7M) or 1 μM (10^−6M) of BGJ-398 for 6 days."}, "[2]": {"test_system": "Fgfr3^Y367C/+ growth plate", "test": "Histology of cultured femur growth plate (HES staining, type X collagen in situ hybridization)", "format": "cell-based, mouse", "experimental": "Limb explants were fixed after culture in 4% paraformaldehyde at 4° C., and placed in a staining solution for 45-60 minutes (0.05% Alizarin Red, 0.015% Alcian Blue, 5% acetic acid in 70% ethanol) or embedded in paraffin. Serial […] were stained with Hematoxylin-Eosin using standard protocols for histological analysis or were subjected to in situ hybridization or immunohistochemical staining. In situ hybridization using [S35]-UTP labeled antisense ribopropes for collagen X was carried out as previously described (Delezoide et al., Hum Mol Genet, 6, 1899-1906, 1997). Sections were counterstained with Hematoxylin. For immunohistochemistry, sections were stained with antibodies specific to FGFR3 (1:250 dilution; Sigma), anti PCNA (1:1000 dilution; Abcam), anti-KI67 (1:300; Abcam), anti-cyclin D1 (1:80 dilution; Santa Cruz) and anti-p57 (1:100 dilution; Santa Cruz) using the Dako Envision kit. Images were captured with an Olympus PD70-IX2-UCB microscope. […] The inventors evaluated the impact of A31 on the growth plate (FIG. 4A). […] Histological examinations using HES staining (FIG. 10A) and type X collagen labeling (FIG. 10B) were also carried out."}, "Fgfr3^Y367C/+ mice": {"test_system": "Fgfr3^Y367C/+ mice", "test": "Dwarfism mouse model, X-rays analysis of skeleton and body growth", "format": "in vivo", "details": "10 days", "experimental": "The effectiveness of PD173074 and BGJ-398 in attenuating the dwarfism phenotype of Fgfr3^Y367C/+ mice was assessed in viva. The mice were seven days of age at treatment initiation and received daily subcutaneous administration of 4.00 mg/kg PD173074 or of 1.66 mg/kg BGJ-398 for 10 days.\nThe effectiveness of PD173074 in attenuating the dwarfism phenotype of Fgfr3^Y367C/+ mice was assessed in vivo. The mice were seven days of age at treatment initiation and received daily subcutaneous administrations of 4.00 mg/kg of PD173074 for 10 days.\nSeven days old mice received daily subcutaneous administrations of 1.66 mg/kg of BGJ-398 for 10 days."}}}
{"smiles": "CCN1CCN(c2ccc(Nc3cc(N(C)C(=O)Nc4c(Cl)c(OC)cc(OC)c4Cl)ncn3)cc2)CC1", "note": "[BGJ-398, reference compound]", "values": [{"measurement": "constitutive FGFR3 receptor phosphorylation", "setting": "[1]", "result": "abolished receptor phosphorylation"}, {"measurement": "femur size over concentration (in words)", "setting": "Fgfr3^Y367C/+ femurs; BGJ-398 100 nM to 1 μM, 6 days", "result": "concentration-dependent increase"}, {"measurement": "gain in femur length", "setting": "Fgfr3^Y367C/+ femurs; BGJ-398 100 nM, 6 days", "result": 71.86, "unit": "%"}, {"measurement": "chondrocyte morphology (HES staining)", "setting": "[2]; BGJ-398 10^−6M", "result": "larger and more spherical"}, {"measurement": "size of the hypertrophic zone of the femur explants", "setting": "[2]; BGJ-398, Fgfr3^Y367C/+ femur explants", "result": "increases"}, {"measurement": "type X collagen expression (in situ hybridization)", "setting": "[2]; BGJ-398, Fgfr3^Y367C/+ growth plate", "result": "enhanced type X collagen expression"}, {"measurement": "dwarfism phenotype (X-rays)", "setting": "Fgfr3^Y367C/+ mice; BGJ-398 1.66 mg/kg daily subcutaneous, from 7 days of age", "result": "Dramatic phenotypic changes"}]}
{"smiles": "CCN(CC)CCCCNc1ncc2cc(-c3cc(OC)cc(OC)c3)c(NC(=O)NC(C)(C)C)nc2n1", "note": "[PD173074]", "values": [{"measurement": "gain in femur length", "setting": "Fgfr3^Y367C/+ femurs; PD173074 150 nM, 5 days", "result": 77, "unit": "%"}, {"measurement": "body size", "setting": "Fgfr3^Y367C/+ mice; PD173074 4.00 mg/kg daily subcutaneous", "result": "overall increase in body size"}, {"measurement": "dwarfism phenotype (X-rays, clinical features)", "setting": "Fgfr3^Y367C/+ mice; PD173074 4.00 mg/kg daily subcutaneous, from 7 days of age", "result": "Amelioration in key relevant achondroplasia clinical features"}]}
